Molecules are shown by their SMILES. Where two headings read alike, the source gives them in different places.

Results on 27 compounds are retold here after patent US20250288571A1 (Nested Therapeutics, Inc., priority 2024, published 2025).

The subject of experiment [1] is IPC298 cells. In words: IPC298 Cell Titer Glow assay (CTG). The settings on record: Homo sapiens, IPC-298, 72 h; for IC50: read-out: CTG IC50 (nM) Cell Line: IPC298.2. A general note: Cellular ATP, detected with luciferase, serves as a proxy for viable cell number.
In experiment [2] the test system is HCT116 cells. In words: HCT116 Cell Titer Glow assay (CTG). The settings on record: Homo sapiens, HCT-116, 72 h; for IC50: read-out: CTG IC50 (nM) Cell Line: HCT116.20.
Experimental: HCT116 and IPC298 Cell Titer Glow Assay (CTG)
HCT116 cells and IPC298 cells were diluted with culture medium to the desired density 500 cells/well and 40 μL of cell suspension were added into each well of 384-well cell culture plate. […] The plates were covered and stored at room temperature for 30 minutes without shaking and then the plates were transferred into a 37° C. 5% CO2 incubator overnight.
A 10 mM solution in dimethyl sulfoxide (DMSO) was prepared for each test compound. A 3 fold, 10-point dilution was prepared from the stock solution. 40 nl of each solution in 100% DMSO was added to the 384-well plate and diluted to a final 0.1% DMSO final concentration. The plates were then incubated for 72 hours (for both cell lines) at 37° C.
CellTiter-Glo® 2.0 Reagent (Promega, G9242) was removed from the refrigerator and equilibrated at room temperature (23° C.) for 60 minutes. The plates were then removed from the incubator and allowed to equilibrate to room temperature. 30 μL CellTiter-Glo® 2.0 Reagent were added to the assay plates, and spun 1 min/1000 rpm. The plates were allowed to stand for about 20 minutes before being read on Envision using a standard luminescence readout. DMSO was employed as negative control (High control, HC) and 1 uM Staurosporine was employed as positive control (Low control, LC).
The percent (%) inhibition at each concentration of compound was calculated based on the signal in the negative and positive control wells contained within each assay plate.
The mark [3] stands for this setting: read-out: CTG % cell viability 1000 uM HCT116.20, HCT116 cells, 72 hours, 1000 uM, percent cells remaining after treatment.
Where [4] appears, read: read-out: CTG % cell viability 100 uM IPC298.2, IPC298 cells, 72 hours, 100 uM, percent cells remaining after treatment.
[5] abbreviates: read-out: CTG % cell viability 100 uM IPC298.2.
[6] abbreviates: read-out: CTG % cell viability 1000 uM HCT116.20.

A word on the IC50: it is the point on the concentration scale where inhibition reaches its midpoint. Usually viability stands for a read-out of living cells in per cent, often relative to untreated cells. As for `CNS(=O)(=O)Nc1nccc(Cc2cccc(Nc3ccc(Cl)cc3F)c2C)c1F` [Example 70, 4-[[3-(4-chloro-2-fluoro-anilino)-2-methyl-phenyl]methyl]-3-fluoro-N-(methylsulfamoyl)pyridin-2-amine], the IC50 is 10 to 100 nM in experiment [1] and above 1000 nM in experiment [2]. For the same compound, in experiment [2] (setting [3]), the viability at 1000 µM amounted to 50.2%.

For the compound `CNS(=O)(=O)Nc1nccc(Cc2cncc(Oc3ccc(SC)cc3)c2C)c1F` [Example 71, {[3-fluoro-4-({4-methyl-5-[4-(methylsulfanyl)phenoxy]pyridin-3-yl}methyl)pyridin-2-yl]sulfamoyl}(methyl)amine], the IC50 in experiment [1] and in experiment [2] was below 10 nM in each case.

As to `CNS(=O)(=O)Nc1nccc(Cc2cncc(Oc3ccc(S(C)(=O)=O)cc3)c2C)c1F` [Example 72, [(3-fluoro-4-{[5-(4-methanesulfonylphenoxy)-4-methylpyridin-3-yl]methyl}pyridin-2-yl)sulfamoyl](methyl)amine], the results for the IC50 in experiment [1] and in experiment [2] were 10 to 100 nM and 500 to 1000 nM, respectively.

As for `CNS(=O)(=O)Nc1nccc(Cc2cncc(OC3CCC(C)(C)CC3)c2C)c1F` [Example 73, 4-[[5-(4,4-dimethylcyclohexoxy)-4-methyl-3-pyridyl]methyl]-3-fluoro-N-(methylsulfamoyl)pyridin-2-amine], in experiment [1] (setting [4]), the viability at 100 µM came to 80.8%. In addition, the IC50 in experiment [1] and in experiment [2] was above 1000 nM each time. Besides, the viability at 1000 µM in experiment [2] (setting [3]) came to 75.4%.

As for `CC#CCOc1cncc(Cc2ccnc(NS(=O)(=O)NC)c2F)c1C` [Example 75, 4-[(5-but-2-ynoxy-4-methyl-3-pyridyl)methyl]-3-fluoro-N-(methylsulfamoyl)pyridin-2-amine], the viability at 100 µM in experiment [1] (setting [4]) stood at 87.5%. Further, the IC50 in experiment [1] and in experiment [2] was above 1000 nM throughout. Moreover, the viability at 1000 µM in experiment [2] (setting [3]) was 89.1%.

With `CNS(=O)(=O)Nc1nccc(Cc2cncc(Oc3ccc(Cl)cc3C)c2C)c1F` [Example 76, 4-[[5-(4-chloro-2-methyl-phenoxy)-4-methyl-3-pyridyl]methyl]-3-fluoro-N-(methylsulfamoyl)pyridin-2-amine], the IC50 in experiment [1] is below 10 nM; in experiment [2] it was 100 to 500 nM.

On to `CNS(=O)(=O)Nc1nccc(Oc2cncc(Oc3ccc(Cl)cc3)c2C)c1F` [Example 77, 4-[[5-(4-chlorophenoxy)-4-methyl-3-pyridyl]oxy]-3-fluoro-N-(methylsulfamoyl)pyridin-2-amine], for which the IC50 in experiment [1] was below 10 nM; in experiment [2] it was 100 to 500 nM.

As for `CNS(=O)(=O)Nc1nccc(Cc2cncc(Sc3ccc(Cl)cc3)c2C)c1F` [Example 78, {[4-({5-[(4-chlorophenyl)sulfanyl]-4-methylpyridin-3-yl}methyl)-3-fluoropyridin-2-yl]sulfamoyl}(methyl)amine], the IC50 in experiment [1] was below 10 nM; in experiment [2], 100 to 500 nM.

For the compound `CNS(=O)(=O)Nc1nccc(Oc2cncc(Nc3ccc(C)cc3F)c2C)c1F` [Example 79], the IC50 in experiment [1] and in experiment [2] was below 10 nM each time.

Consider `CCc1ccc(Nc2cncc(Oc3ccnc(NS(=O)(=O)NC)c3F)c2C)c(F)c1` [Example 80, N-(4-ethyl-2-fluorophenyl)-5-({3-fluoro-2-[(methylsulfamoyl)amino]pyridin-4-yl}oxy)-4-methylpyridin-3-amine], for which the IC50 in experiment [1] and in experiment [2] was below 10 nM each time.

On to `CCNS(=O)(=O)Nc1nccc(Cc2cncc(Oc3ccc(Cl)cc3F)c2C)c1F` [Example 81, 4-[[5-(4-chloro-2-fluoro-phenoxy)-4-methyl-3-pyridyl]methyl]-N-(ethylsulfamoyl)-3-fluoro-pyridin-2-amine], for which the values for the IC50 in experiment [1] and in experiment [2] were below 10 nM and 100 to 500 nM, respectively.

`CNS(=O)(=O)Nc1nccc(Cc2cncc(OCc3ccc(Cl)cc3)c2C)c1F` [Example 82, 4-[[5-[(4-chlorophenyl)methoxy]-4-methyl-3-pyridyl]methyl]-3-fluoro-N-(methylsulfamoyl)pyridin-2-amine]: the viability at 100 µM in experiment [1] (setting [4]) is 56%. In addition, the IC50 in experiment [1] and in experiment [2] was above 1000 nM in each case. Moreover, the viability at 1000 µM in experiment [2] (setting [3]) is 93%.

For `CCc1c(Cc2ccnc(NS(=O)(=O)NC)c2F)cncc1Oc1ccc(Cl)cc1` [Example 83, 4-[[5-(4-chlorophenoxy)-4-ethyl-3-pyridyl]methyl]-3-fluoro-N-(methylsulfamoyl)pyridin-2-amine], the IC50 in experiment [1] was below 10 nM; in experiment [2], 10 to 100 nM.

In the case of `CNS(=O)(=O)Nc1nccc(Oc2cncc(Oc3ccc(C)cc3Cl)c2C)c1F` [Example 84, 4-[[5-(2-chloro-4-methyl-phenoxy)-4-methyl-3-pyridyl]oxy]-3-fluoro-N-(methylsulfamoyl)pyridin-2-amine], the values for the IC50 in experiment [1] and in experiment [2] were below 10 nM and 500 to 1000 nM, respectively.

Turning to `CNS(=O)(=O)Nc1nccc(Cc2cncc(NC3CC4(C3)CN(C)C4)c2C)c1F` [Example 85, N-[5-[[3-fluoro-2-(methylsulfamoylamino)-4-pyridyl]methyl]-4-methyl-3-pyridyl]-2-methyl-2-azaspiro[3.3]heptan-6-amine], in experiment [1] (setting [5]), the viability at 100 µM was 106%. Also, the IC50 in experiment [1] and in experiment [2] was above 1000 nM in each case. Further, the viability at 1000 µM in experiment [2] (setting [6]) stood at 102%.

As for `CNS(=O)(=O)Nc1nccc(Cc2cncc(OCc3cccc(Cl)c3)c2C)c1F` [Example 86, 4-[[5-[(3-chlorophenyl)methoxy]-4-methyl-3-pyridyl]methyl]-3-fluoro-N-(methylsulfamoyl)pyridin-2-amine], the values for the IC50 in experiment [1] and in experiment [2] were 10 to 100 nM and 100 to 500 nM, respectively.

On to `CNS(=O)(=O)Nc1nccc(Cc2cccc3c2CCCN3c2ccc(Cl)cc2F)c1F` [Example 87, 4-[[1-(4-chloro-2-fluoro-phenyl)-3,4-dihydro-2H-quinolin-5-yl]methyl]-3-fluoro-N-(methylsulfamoyl)pyridin-2-amine], for which, in experiment [1] (setting [4]), the viability at 100 µM worked out at 101%. In addition, the IC50 in experiment [1] and in experiment [2] was above 1000 nM in each case. In experiment [2] (setting [3]), the viability at 1000 µM came to 95%.

Take `CNS(=O)(=O)Nc1nccc(Cc2cncc(Nc3ccc(CC(C)C)cc3F)c2C)c1F` [Example 88, 3-fluoro-4-[[5-(2-fluoro-4-isobutyl-anilino)-4-methyl-3-pyridyl]methyl]-N-(methylsulfamoyl)pyridin-2-amine]: the figures for the IC50 in experiment [1] and in experiment [2] were below 10 nM and 100 to 500 nM, respectively.

As for `CNS(=O)(=O)Nc1nccc(Cc2cncc(Oc3ncc(C)s3)c2C)c1F` [Example 89, 3-fluoro-4-[[4-methyl-5-(5-methylthiazol-2-yl)oxy-3-pyridyl]methyl]-N-(methylsulfamoyl)pyridin-2-amine], the viability at 100 µM in experiment [1] (setting [4]) is 100%. In addition, the IC50 in experiment [1] and in experiment [2] was above 1000 nM in each case. In addition, the viability at 1000 µM in experiment [2] (setting [3]) came to 95%.

Regarding `Cc1c(Cc2ccnc(NS(=O)(=O)NC(C)C)c2F)cncc1Oc1ccc(Cl)cc1F` [Example 90, 4-[[5-(4-chloro-2-fluoro-phenoxy)-4-methyl-3-pyridyl]methyl]-3-fluoro-N-(isopropylsulfamoyl)pyridin-2-amine], the IC50 was 10 to 100 nM in experiment [1] and above 1000 nM in experiment [2]. The viability at 1000 µM in experiment [2] (setting [3]) was determined as 59.5%.

Regarding `CNS(=O)(=O)Nc1nccc(Cc2cncc(Oc3ccc(C)cc3F)c2C)c1OC` [Example 91, 4-[[5-(2-fluoro-4-methyl-phenoxy)-4-methyl-3-pyridyl]methyl]-3-methoxy-N-(methylsulfamoyl)pyridin-2-amine], the concentration for half-maximal inhibition (IC50) is below 10 nM in experiment [1] and 10 to 100 nM in experiment [2].

For the compound `CNS(=O)(=O)Nc1nccc(Cc2cncc(OC3CC4(C3)CN(C)C4)c2C)c1F` [Example 92, 3-fluoro-4-[[4-methyl-5-[(2-methyl-2-azaspiro[3.3]heptan-6-yl)oxy]-3-pyridyl]methyl]-N-(methylsulfamoyl)pyridin-2-amine], the viability at 100 µM in experiment [1] (setting [5]) is 101%. In addition, the IC50 in experiment [1] and in experiment [2] was above 1000 nM each time. Further, in experiment [2] (setting [6]), the viability at 1000 µM was found to be 103%.

For `CNS(=O)(=O)Nc1nccc(Cc2cncc(Oc3ccc(Cl)cc3F)c2C)c1OC` [Example 93, 4-[[5-(4-chloro-2-fluoro-phenoxy)-4-methyl-3-pyridyl]methyl]-3-methoxy-N-(methylsulfamoyl)pyridin-2-amine], the IC50 is below 10 nM in experiment [1] and 10 to 100 nM in experiment [2].

Turning to `CNS(=O)(=O)Nc1nccc(Cc2cncc(Oc3ccc(OC)cc3F)c2C)c1F` [Example 94, 3-fluoro-4-[[5-(2-fluoro-4-methoxy-phenoxy)-4-methyl-3-pyridyl]methyl]-N-(methylsulfamoyl)pyridin-2-amine], the results for the IC50 in experiment [1] and in experiment [2] were below 10 nM and 100 to 500 nM, respectively.

`CCNS(=O)(=O)Nc1nccc(Cc2cncc(Nc3ccc(C)cc3F)c2C)c1F` [Example 95, N-(ethylsulfamoyl)-3-fluoro-4-[[5-(2-fluoro-4-methyl-anilino)-4-methyl-3-pyridyl]methyl]pyridin-2-amine]: the IC50 was below 10 nM in experiment [1] and 10 to 100 nM in experiment [2].

As to `Cc1ccc(Nc2cncc(Cc3ccnc(NS(N)(=O)=O)c3F)c2C)c(F)c1` [Example 96, 3-fluoro-4-[[5-(2-fluoro-4-methyl-anilino)-4-methyl-3-pyridyl]methyl]-2-(sulfamoylamino)pyridine], the IC50 in experiment [1] is below 10 nM; in experiment [2], 10 to 100 nM.

For `CNS(=O)(=O)Nc1nccc(Oc2cncc(Nc3ccc(C4CC4)cc3F)c2C)c1F` [Example 97, 4-[[5-(4-cyclopropyl-2-fluoro-anilino)-4-methyl-3-pyridyl]oxy]-3-fluoro-N-(methylsulfamoyl)pyridin-2-amine], the IC50 in experiment [1] and in experiment [2] was below 10 nM throughout.
